# Tests used:
# [1] = molecular target: Adenosine receptor A2a (Rattus norvegicus) (UniProt P30543); experiment: Binding affinity towards adenosine A2A receptor by measuring its ability to displace [3H]-CGS- 21680 in rat striatal membranes at a concentration of 10e-4 M; assay type: cell membranes; details: Striatum, Membrane
# [2] = molecular target: T1, Adenosine receptor A3 (Homo sapiens) (UniProt P0DMS8); experiment: Binding affinity towards adenosine A3 receptor by measuring its ability to displace [125I]AB-MECA binding to membranes prepared from HEK293 cells; assay type: cell membranes
# T1 sequence (whole entry): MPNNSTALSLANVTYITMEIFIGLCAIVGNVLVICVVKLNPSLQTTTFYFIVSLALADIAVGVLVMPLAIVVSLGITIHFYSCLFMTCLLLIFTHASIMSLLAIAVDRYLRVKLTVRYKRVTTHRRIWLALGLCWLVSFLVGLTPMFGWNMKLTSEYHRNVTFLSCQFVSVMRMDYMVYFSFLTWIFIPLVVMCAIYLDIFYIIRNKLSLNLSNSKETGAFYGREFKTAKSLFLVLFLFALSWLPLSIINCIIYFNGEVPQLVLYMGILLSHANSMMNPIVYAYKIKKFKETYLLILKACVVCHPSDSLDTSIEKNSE
# [3] = molecular target: T2, Adenosine receptor A1 (Rattus norvegicus) (UniProt P25099); experiment: Binding affinity towards adenosine A1 receptor by measuring its ability to displace [3H]-R-PIA in rat brain membranes at a concentration of 10e-4 M; assay type: cell membranes
# T2 sequence (whole entry): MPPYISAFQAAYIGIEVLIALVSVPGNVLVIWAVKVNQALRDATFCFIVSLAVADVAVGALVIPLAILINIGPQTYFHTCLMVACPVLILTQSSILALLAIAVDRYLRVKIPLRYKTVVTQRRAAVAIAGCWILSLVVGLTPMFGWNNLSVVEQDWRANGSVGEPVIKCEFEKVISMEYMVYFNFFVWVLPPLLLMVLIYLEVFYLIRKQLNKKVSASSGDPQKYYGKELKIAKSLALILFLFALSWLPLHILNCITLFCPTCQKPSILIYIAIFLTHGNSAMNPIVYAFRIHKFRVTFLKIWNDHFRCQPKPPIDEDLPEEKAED
# HEK293 = experiment: Selectivity for binding affinity towards A1 adenosine receptor in rat brain membrane and human A3 receptor expressed in HEK cells; assay type: cell-based
# [4] = molecular target: Adenosine receptor A2a (Rattus norvegicus) (UniProt P30543); experiment: Binding affinity for adenosine A2A receptor as displacement of [3H]-CGS- 21680 from rat striatal membranes at 10e-4 M; assay type: cell membranes; details: Membrane
# Adenosine receptor A1 [5] = molecular target: T3, Adenosine receptor A1 (Rattus norvegicus, UniProt P25099); experiment: Binding affinity for adenosine A1 receptor as displacement of [3H]R-PIA from rat brain membranes at 10e-4 M; assay type: cell membranes, Membrane
# T3 sequence (P25099 whole entry): T2 sequence (whole entry)
# Adenosine receptor A2a [6] = molecular target: T4, Adenosine receptor A2a (Rattus norvegicus, UniProt P30543); experiment: Binding affinity for adenosine A2A receptor as displacement of [3H]-CGS- 21680 from rat striatal membranes; assay type: cell membranes, Membrane
# T4 sequence (P30543 whole entry): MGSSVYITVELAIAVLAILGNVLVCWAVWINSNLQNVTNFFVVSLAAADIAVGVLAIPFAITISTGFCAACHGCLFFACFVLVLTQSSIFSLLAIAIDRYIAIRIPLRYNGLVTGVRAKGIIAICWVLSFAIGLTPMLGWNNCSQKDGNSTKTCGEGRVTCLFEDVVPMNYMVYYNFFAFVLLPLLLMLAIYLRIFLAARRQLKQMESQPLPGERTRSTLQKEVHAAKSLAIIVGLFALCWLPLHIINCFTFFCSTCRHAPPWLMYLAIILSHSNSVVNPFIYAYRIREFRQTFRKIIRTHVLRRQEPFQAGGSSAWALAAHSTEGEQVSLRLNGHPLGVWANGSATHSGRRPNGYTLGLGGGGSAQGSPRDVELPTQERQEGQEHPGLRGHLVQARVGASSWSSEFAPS
# Adenosine receptor A1 [7] = molecular target: T3, Adenosine receptor A1; experiment: Binding affinity for adenosine A1 receptor as displacement of [3H]R-PIA from rat brain membranes; assay type: cell membranes, Membrane
# Adenosine receptor A2a [8] = molecular target: T4, Adenosine receptor A2a
# [9] = molecular target: T1, Adenosine receptor A3 (Homo sapiens); experiment: Binding affinity for adenosine A3 receptor as displacement of [125I]AB-MECA from HEK293 cell membranes at 10e-4 M
# Adenosine receptor A2a (Rattus norvegicus), sequence (P30543 whole entry): as above
SMILES,inhibition [1],Ki [2],inhibition [3],Ratio (HEK293),also measured
CCOC(=O)c1c(C2CCCC2)nc(CC)c(C(=O)SCC)c1CC,26.1%,3380 nM,55.3%,16,–
CCOC(=O)c1c(CC)nc(-c2ccccc2)c(C(=O)OCC)c1C,13.4%,121 nM,10.3%,85,–
CCOC(=O)C1=C(c2ccccc2)N=C(C)/C(=C(/O)SCCOC)C1CC (centres undefined),–,4580 nM,36%,> 10,inhibition [4]: 12.5%
CCOC(=O)C1=C(c2ccccc2)N=C(C)/C(=C(/O)OCC)C1/C=C/c1ccccc1 (centres undefined),4.77%,–,–,–,–
CCOC(=O)c1c(-c2ccccc2)nc(C)c(C(=O)SCCOC)c1CC,7.98%,165 nM,36%,> 500,–
CNC(=O)[C@H]1O[C@@H](n2cnc3c(NCc4ccc(N)c(I)c4)ncnc32)[C@H](O)[C@@H]1O,–,–,–,–,Ki (Adenosine receptor A1 [5]): 3.4 nM
CCCc1nc(-c2ccccc2)c(C(=O)OCC)c(CC)c1C(=O)SCC,2.82%,33.3 nM,16.7%,500,–
CCCOC(=O)c1c(-c2cccc(Cl)c2)nc(CC)c(C(=O)SCCC)c1CC,24.1%,7.94 nM,41.4%,5200,–
CCCOC(=O)c1c(C)nc(-c2ccccc2)c(C(=O)OCC)c1C,24.5%,215 nM,5.05%,23,–
CCOC(=O)C1=C(c2ccccc2)N=C(C)/C(=C(/O)OCC)C1CC (centres undefined),–,–,–,–,Ki (Adenosine receptor A2a [6]): 21800 nM
CCOC(=O)c1c(C)nc(-c2ccccc2)c(C(=O)OCC)c1C,28.4%,–,–,–,–
CCCCc1nc(-c2ccccc2)c(C(=O)OCC)c(CC)c1C(=O)SCC,< 10%,35 nM,40.3%,1200,–
CCOC(=O)c1c(C)nc(-c2ccccc2)c(C(=O)OCC)c1C=O,2.56%,1980 nM,9.56%,4.8,–
CCCC1C(C(=O)OCC)=C(c2ccccc2)N=C(C)/C1=C(/O)SCC (centres undefined),–,–,48%,–,inhibition [4]: 29%
CCCSC(=O)c1c(CC)nc(-c2ccccc2)c(C(=O)OCC)c1CC,15.7%,15.9 nM,8.22%,520,–
CCOC(=O)C1=C(C)NC(C2CCC2)=C(C(=O)OCc2ccccc2)C1C#Cc1ccccc1 (centres undefined),–,–,36%,–,inhibition [4]: 10%
CCCO/C(O)=C1\C(C)=NC(c2ccccc2)=C(C(=O)OCC)C1C (centres undefined),–,–,–,–,Ki (Adenosine receptor A2a [6]): 28900 nM; Ki (Adenosine receptor A1 [7]): 17400 nM
CCO/C(O)=C1\C(C)=NC(c2ccccc2)=C(C(=O)OCc2ccc([N+](=O)[O-])cc2)C1C#Cc1ccccc1 (centres undefined),–,–,–,–,Ki (Adenosine receptor A1 [5]): > 100000 nM; Ki (Adenosine receptor A2a [8]): > 100000 nM
CCSC(=O)c1c(CC)nc(-c2ccccc2)c(C(=O)OCCO)c1CC,10%,188 nM,17.4%,93,–
CCCC1=NC(c2ccccc2)=C(C(=O)OCC)C(CC)/C1=C(\O)SCC (centres undefined),< 10%,2090 nM,26%,> 20,–
CCOC(=O)c1c(C)nc(-c2ccccc2)c(C(=O)OCc2ccccc2)c1C#Cc1ccccc1,–,–,–,4.2,Ki (Adenosine receptor A2a [6]): 43000 nM; inhibition [9]: 2.75%
CCOC(=O)C1=C(C)NC(C2CCCC2)=C(C(=O)OCc2ccccc2)C1C#Cc1ccccc1 (centres undefined),–,–,–,340,–
CCOC(=O)C1=C(C)NC(C2CCCCC2)=C(C(=O)OCc2ccccc2)C1C#Cc1ccccc1 (centres undefined),–,–,22%,–,inhibition [4]: 20%

SMILES,inhibition [1],Ki [2],inhibition [3],Ratio (HEK293),also measured
CCOC(=O)c1c(-c2ccccc2)nc(CC)c(C(=O)O)c1CC,7.09%,1280 nM,4.25%,3.3,–
CCOC(=O)c1c(C)nc(-c2ccccc2)c(C(=O)OCC)c1C(OC)OC,2.88%,783 nM,1.95%,2.5,–
CCOC(=O)c1c(C)nc(C2CCCC2)c(C(=O)OCc2ccccc2)c1C#Cc1ccccc1,–,–,–,15,–
CCOC(=O)C1=C(c2ccccc2)N=C(CC)/C(=C(/O)OCC)C1C (centres undefined),–,–,20%,–,inhibition [4]: < 10%
CCOC(=O)c1c(C)nc(C2CCC2)c(C(=O)OCc2ccccc2)c1C#Cc1ccccc1,–,–,< 10%,–,–
CCCc1c(C(=O)SCC)c(C)nc(-c2ccccc2)c1C(=O)OCC,7.53%,194 nM,29%,> 700,–
CCSC(=O)c1c(C)nc(-c2ccccc2)c(C(=O)Oc2ccccc2)c1CC,12.8%,2610 nM,20%,> 40,–
CCCOC(=O)c1c(-c2ccccc2)nc(CC)c(C(=O)SCC)c1CC,< 10%,8.29 nM,7.77%,940,–
CCOC(=O)C1=C(c2ccccc2)N=C(C)/C(=C(/O)OCC)C1C(OC)OC (centres undefined),< 10%,15300 nM,32%,> 5,–
CCOC(=O)c1c(C)nc(-c2ccccc2)c(C(=O)OCC)c1CC,3.69%,176 nM,3.36%,19,–
CCOC(=O)C1=C(c2ccccc2)N=C(C)/C(=C(/O)SCC)C1CC (centres undefined),54.8%,–,35.4%,–,–
CCOC(=O)c1c(-c2ccccc2)nc(C)c(C(=O)SCC)c1CC,14.9%,143 nM,14.8%,340,–
CCOC(=O)c1c(-c2cccc(Cl)c2)nc(CC)c(C(=O)SCC)c1CC,8.91%,13.4 nM,8.2%,610,–
CCCOC(=O)c1c(-c2ccccc2)nc(CC)c(C(=O)SCC)c1CCC,2.05%,18.9 nM,15.6%,830,–
CCS/C(O)=C1\C(C)=NC(c2ccccc2)=C(C(=O)OCc2ccccc2)C1CC (centres undefined),–,1650 nM,45%,> 50,inhibition [4]: 14.3%
CCOC(=O)c1c(-c2ccccc2)nc(C2CCC2)c(C(=O)SCC)c1CC,22%,145 nM,30%,> 500,–
CCOC(=O)C1=C(C)NC(C2CC2)=C(C(=O)OCc2ccccc2)C1C#Cc1ccccc1 (centres undefined),–,–,22%,–,inhibition [4]: 10%
CCOC(=O)c1c(-c2ccccc2)nc(CCOC)c(C(=O)SCC)c1CC,12.6%,16.8 nM,10.1%,600,–
CCOC(=O)C1=C(c2ccccc2)N=C(CC)/C(=C(/O)SCC)C1CC (centres undefined),29.1%,907 nM,34%,> 50,–
CCO/C(O)=C1\C(C)=NC(c2ccccc2)=C(C(=O)OCc2ccccc2)C1C#Cc1ccccc1 (centres undefined),< 10%,–,–,–,–
CCOC(=O)c1c(-c2ccccc2)nc(CC)c(C(=O)SCC)c1CC,6.13%,20 nM,41%,> 3000,–
CCOC(=O)C1=C(c2ccccc2)N=C(C)/C(=C(/O)OCC)C1C=O (centres undefined),32%,15600 nM,26%,6,–
